Key:
Assay in all cases: relative viability (nuclei count vs DMSO), 5 days (fraction); higher = more cells survive
[1] = compound: C1COCCN1C2=NC(=NC3=C2OC4=C3C=CC=N4)C5=CC(=CC=C5)NC(=O)C6=CN=C(C=C6)N + COc1cc2c(Oc3ccc(NC(=O)C4(C(=O)Nc5ccc(F)cc5)CC4)cc3F)ccnc2cc1OCCCN1CCOCC1 [Foretinib] (partner 0.25 µM)
In short: (§1)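 Relative viability divides the nuclei count in treated wells by that in vehicle wells. Lung cancer cell lines were seeded in 1536-well plates, dosed by pin tool the next day, and fixed and stained after 5 days in one step with final 0.05% Triton X-100, 1% formaldehyde and 1 ug/ml Hoechst. Dosing was a single drug or a fixed anchor-drug dose plus five library-drug doses (not always all listed) in √10 steps, and values are medians of duplicate plates imaged at 4×.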

Entinostat + Tozasertib = compound: Nc1ccccc1NC(=O)c1ccc(CNC(=O)OCc2cccnc2)cc1 [Entinostat] + Cc1cc(Nc2cc(N3CCN(C)CC3)nc(Sc3ccc(NC(=O)C4CC4)cc3)n2)n[nH]1 [Tozasertib] (partner 0.1 µM)
In short: as §1

SGI-1776 + Pemetrexed = compound: CN1CCC(CNc2ccc3ncc(-c4cccc(OC(F)(F)F)c4)n3n2)CC1 [SGI-1776] + Nc1nc2[nH]cc(CCc3ccc(C(=O)N[C@@H](CCC(=O)O)C(=O)O)cc3)c2c(=O)[nH]1 [Pemetrexed] (partner 0.2 µM)
In short: as §1

Entinostat + Decitabine = compound: Nc1ccccc1NC(=O)c1ccc(CNC(=O)OCc2cccnc2)cc1 [Entinostat] + Nc1ncn([C@H]2C[C@H](O)[C@@H](CO)O2)c(=O)n1 [Decitabine] (partner 2 µM)
In short: as §1

| Cell Line | relative viability ([1]; first compound 0.02 µM) | relative viability ([1]; first compound 0.06325 µM) | relative viability ([1]; first compound 0.2 µM) | relative viability ([1]; first compound 0.6325 µM) | relative viability ([1]; first compound 2 µM) | relative viability (Entinostat + Tozasertib; first compound 0.02 µM) | relative viability (Entinostat + Tozasertib; first compound 0.06325 µM) | relative viability (Entinostat + Tozasertib; first compound 0.2 µM) | relative viability (Entinostat + Tozasertib; first compound 0.6325 µM) | relative viability (Entinostat + Tozasertib; first compound 2 µM) | relative viability (SGI-1776 + Pemetrexed; first compound 0.08 µM) | relative viability (SGI-1776 + Pemetrexed; first compound 0.8 µM) | relative viability (SGI-1776 + Pemetrexed; first compound 2.53 µM) | relative viability (SGI-1776 + Pemetrexed; first compound 8 µM) | relative viability (Entinostat + Decitabine; first compound 0.02 µM) | relative viability (Entinostat + Decitabine; first compound 0.06325 µM) | relative viability (Entinostat + Decitabine; first compound 0.2 µM) | relative viability (Entinostat + Decitabine; first compound 0.6325 µM) | relative viability (Entinostat + Decitabine; first compound 2 µM) |
| --- | --- | --- | --- | --- | --- | --- | --- | --- | --- | --- | --- | --- | --- | --- | --- | --- | --- | --- | --- |
| EKVX | 0.97 | 1.01 | 0.773 | 0.751 | 0.339 | 0.384 | 0.414 | 0.323 | 0.234 | 0.192 | 0.396 | 0.477 | 0.395 | 0.371 | 0.307 | 0.351 | 0.281 | 0.207 | 0.244 |
| HCC-827 | 1.01 | 1.06 | 0.99 | 1.08 | 0.97 | 0.425 | 0.406 | 0.335 | 0.302 | 0.184 | 0.393 | 0.268 | 0.24 | 0.226 | 0.318 | 0.338 | 0.315 | 0.223 | 0.226 |
| NCI-H661 | 1 | 1.05 | 1.02 | 0.999 | 0.742 | 0.339 | 0.332 | 0.282 | 0.334 | 0.396 | 0.938 | 0.89 | 0.917 | 0.889 | 0.58 | 0.549 | 0.538 | 0.479 | 0.356 |
| NCI-H2342 | 0.981 | 1.24 | 1.02 | 1.01 | 0.88 | 0.465 | 0.429 | 0.377 | 0.372 | 0.333 | 0.815 | 0.888 | 0.802 | 0.819 | 0.806 | 0.704 | 0.65 | 0.607 | 0.557 |
| SW 900 | 0.944 | 0.93 | 0.751 | 1.5 | 0.735 | 0.573 | 0.62 | 0.515 | 0.282 | 0.206 | 0.488 | 0.486 | 0.493 | 0.46 | 0.429 | 0.419 | 0.391 | 0.302 | 0.286 |
| LC-2-ad | 0.858 | 0.984 | 0.977 | 1.06 | 0.9 | 0.425 | 0.367 | 0.368 | 0.299 | 0.242 | 0.286 | 0.288 | 0.285 | 0.254 | 0.833 | 0.74 | 0.642 | 0.611 | 0.438 |
| EPLC-272H | 0.648 | 0.776 | 0.66 | 0.542 | 0.476 | 0.265 | 0.291 | 0.277 | 0.154 | 0.197 | 0.423 | 0.362 | 0.351 | 0.246 | 0.409 | 0.383 | 0.325 | 0.25 | 0.218 |
| A-427 | 1.11 | 1.28 | 1.16 | 0.855 | 0.676 | 0.213 | 0.225 | 0.203 | 0.182 | 0.159 | 1.01 | 1.05 | 0.944 | 0.897 | 0.536 | 0.507 | 0.528 | 0.477 | 0.438 |
